Patent US10780099B2, “Injectable neurosteroid formulations containing nanoparticles” (MARINUS PHARMACEUTICALS, INC., priority 2015, dated 2020)
Where two headings read alike, the source gives them in different places.

Experiments:
[1] = cited from earlier work

SMILES	half-life ([1]; human plasma)	solubility (Solubility in water) [µg/mL]	half-life ([1]; human plasma following oral administration)	Tmax ([1]; in vivo)
CC(=O)[C@H]1CC[C@H]2[C@@H]3CC[C@H]4C[C@H](O)CC[C@]4(C)[C@H]3CC[C@]12C [Allopregnanolone, 3α,5α-tetrahydroprogesterone]	about 45 minutes	–	–	–
CC(=O)[C@H]1CC[C@H]2[C@@H]3CC[C@H]4C[C@](C)(O)CC[C@]4(C)[C@H]3CC[C@]12C [Ganaxolone, 3α-hydroxy, 3β-methyl-5α-pregnan-20-one]	–	< 1	approximately 20 hours	short
